Reference: patent US11180510B2, “Xanthine derivatives and uses thereof as inhibitors of bromodomains of BET proteins” (Centre national de la recherche scientifique, priority 2017, dated 2021)
pIC50, pKd: −log10 of the molar value.

What was measured:
[1] = target: T1, Brdt(BD1) (Homo sapiens, UniProt Q58F21); assay: HTRF BET selectivity profile, Brdt(BD1); assay type: binding
T1 construct: GST tagged bromodomain proteins were purchased from BPS Bioscience; purchased BPS Bioscience
Summary of the method: (§1)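 HTRF peptide-displacement assay with GST-tagged bromodomains and histone peptide, 0.5% final DMSO, incubated 3 h, 6 h or overnight at room temperature or 4 °C depending on bromodomain. 665/620 nm ratio read; inhibition scaled between DMSO and no-peptide controls, IC50 in triplicate.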

[2] = target: T2, Brd4(BD2) (Homo sapiens, UniProt O60885); assay: HTRF BET selectivity profile, Brd4(BD2); assay type: binding
T2 construct: GST tagged bromodomain proteins were purchased from BPS Bioscience; purchased BPS Bioscience
Summary of the method: as §1

[3] = target: T3, Brd2(BD2) (Homo sapiens, UniProt P25440); assay: HTRF BET selectivity profile, Brd2(BD2); assay type: binding; settings: read-out: Brd2(BD2) IC50
T3 construct: GST tagged bromodomain proteins were purchased from BPS Bioscience; purchased BPS Bioscience
T3 sequence (P25440 344-453 limits assumed): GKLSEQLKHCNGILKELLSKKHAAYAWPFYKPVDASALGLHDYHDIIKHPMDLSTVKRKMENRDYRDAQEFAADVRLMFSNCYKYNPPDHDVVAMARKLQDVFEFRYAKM

[4] = target: BRD4(BD1) (Homo sapiens, UniProt O60885); assay: Isothermal Titration Calorimetry; assay type: binding; settings: Brd4 (BD1), FIG. 1; read-out: KD by ITC (orthogonal assay)
Summary of the method: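 […]; general protocol uses 13 injections at 25° C, with protein titrant at 10–15× the compound concentration. Integrated heats fitted to a one-site model for ΔH and KA, with ΔG and TΔS derived from these.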

[5] = test system: Molm14 cells; assay: Cell Titer-Glo cell viability assay, Molm14; assay type: cell-based; settings: Homo sapiens, MOLM-14, 72 h, mean of three experiments, NA = IC50 > maximal concentration used
Description: The human leukemia cell line Jurkat (ATCC® TIB-152) and Molm14 was maintained in RPMI-1640 medium or MEMα, respectively and supplemented both with 10% FBS at 37° C. and 5% CO2.
In antiproliferative assays, compounds were assayed for their growth inhibiting activity towards the described cancer cell lines using the Cell Titer-Glo Luminescent Cell Viability Assay as described by the manufacturer (Promega Corporation). Briefly, 10.000 cells were plated onto 96 well-plates (white with clear bottom (3610, Corning Costar)) in 90 μL media per well immediately before assay. 10 μL of compounds were added at different concentrations (ranging from 50 μM to 6 nM) to each well and cell cultures were incubated 37° C. during 72 h. Vehicle (DMSO) was used as negative control, JQ1 (a pan-BET inhibitor) was used as positive control and all compounds were tested in constant percentage of DMSO (1%). After addition of 50 μL Cell Titer-GLO, shaking 2 minutes and incubating at room temperature 10 minutes, the Luminescence was measured using a Centro luminometer LB960 (Berthold). Dose-response curves were generated and effective dose 50 values (EC50) were calculated using non-linear regression analysis (Graph Pad Prism).

[6] = test system: c-Myc; assay: c-Myc HTRF, Jurkat cell line; assay type: cell-based, human
Description: For additional evaluation of the effect of 43c in cell assays, an influence of the molecule on c-Myc expression was determined by c-Myc HTRF. c-Myc is a proto-oncogene that is often overexpressed in cancer. This leads to the increased expression of many genes, involved in cell proliferation, contributing to cancer development. Downregulation of c-Myc is considered as a promising approach for anticancer treatment.

[7] = target: Brd3(BD1) (Homo sapiens, UniProt Q15059); assay: HTRF BET selectivity profile, Brd3(BD1); assay type: binding; set-up: GST tagged bromodomain proteins were purchased from BPS Bioscience; purchased BPS Bioscience
Chain of Brd3(BD1) (Q15059 34-140 limits assumed): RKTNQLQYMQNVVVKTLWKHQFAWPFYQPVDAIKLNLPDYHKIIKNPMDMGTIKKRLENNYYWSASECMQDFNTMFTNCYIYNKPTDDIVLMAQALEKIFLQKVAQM

Compound: CCn1cnc2c1c(=O)[nH]c(=O)n2Cc1ccc(CNS(=O)(=O)c2ccc(OC3CCOCC3)c(F)c2)cc1 [Compound 43c]
- pIC50 [1]: 6.45
- pIC50 [2]: 5.64
- pIC50 [3]: 5.91
- pKd [4]: 7.05
- pIC50 [5]: 5.21
- concentration at which c-Myc is downregulated, Jurkat [6]: 2.4 µM
- pIC50 [7]: 6.88
- Ratio 3-1 vs 3-2 ([7]; selectivity Brd3(BD1) vs Brd3(BD2), HTRF IC50): 16
